Assays:
[1] = tested on: Beas-2B human bronchial epithelial cells; conditions: cited from earlier work
Source text: It was shown previously that pea Psd1 is not toxic for Beas-2B human bronchial epithelial cells. Here we investigated the cytotoxic action of the pea Psd1 on human immune cells by using a human peripheral blood mononuclear cells (PBMCs) fraction.

[2] = tested on: monocyte-derived dendritic cells (moDCs); assay: Multiplex xMAP cytokine production, direct stimulation of moDCs; assay type: cell-based, human; conditions: 24 h
Description: Primary peripheral blood mononuclear cells (PBMCs) collected from healthy donors were purchased from American Type Culture Collection (ATCC PCS-800-011). Primary CD14^+ blood monocytes were isolated from PBMCs by adherence according to standard technique. Monocyte-derived mature dendritic cells (moDCs) were obtained from CD14^+ blood monocytes according to the previously reported protocol. Briefly, blood monocytes were incubated in a complete RPMI-1640 medium (Capricorn Scientific, Ebsdorfergrund, Germany), containing 10% fetal bovine serum (FBS, Capricorn Scientific, Ebsdorfergrund, Germany), 1× antibiotic-antimycotic solution (Invitrogen, Waltham, MA, USA), 800 U/mL rhGM-CSF (Sci-Store, Moscow, Russia) and 500 U/mL rhIL-4 (Sci-Store) for 3 days in CellXpert C170i CO2-incubator (Eppendorf, Hamburg, Germany). Fresh complete RPMI-1640 medium with rhGM-CSF and rhIL-4 was added to the culture on day 3. On day 5, fresh complete RPMI-1640 containing 100 U/mL rhTNF-α (Sigma-Aldrich, St. Louis, MO, USA) as well as 800 U/mL rhGM-CSF and 500 U/mL rhIL-4 was added and the culture was incubated for another 4 days until full maturation.
Monocytes and moDCs were seeded into the wells of 48- and 24-well plates in the complete RPMI-1640 medium supplemented with 10% human AB serum (HABS, Capricorn Scientific) without antibiotics 24 h prior to the experiment, and kept in a humidified CO2-incubator (5% CO2, 37 °C). After 24 h, the medium in the wells of the 48-well plate was replaced by fresh complete RPMI-1640 medium with 10% HABS, supplemented with 2 µM of Psd1 for the sample wells or fresh medium alone for the control wells. Medium in the wells of the 24-well plate was replaced by fresh complete RPMI-1640 medium with 10% human serum without antibiotics. Then, Millicell inserts with Caco-2 monolayers with TEER > 400 Ωcm^2 were placed into the wells of the 24-well plate, containing monocytes or moDCs. Wells with Millicell inserts with Caco-2 monolayers without immune cells were used as control wells. Medium in apical chambers of Millicell inserts was replaced by fresh complete RPMI-1640 with 10% human serum medium containing Psd1 at the final concentration of 2 µM or Candida albicans at the concentration of 5 × 10^4 cells/mL or yeast cells together with the pea defensin at the same concentration. Fresh complete RPMI-1640 medium only with 10% human serum and without antibiotics was used in control wells. Plates were kept in CO2-incubator (5% CO2, 37 °C) for another 24 h. Culture supernatants from the wells of the 48-well plate and basolateral chambers of the 24-well plate were collected and stored at −70 °C degrees less than one month prior to the analytes assessment.
The following 48 analytes were measured at a protein level by multiplex xMAP technology using the MILLIPLEX Human Cytokine/Chemokine/Growth Factor Panel A kit (HCYTA-60K-PX48, Merck, Darmstadt, Germany): sCD40L, EGF, Eotaxin-1/CCL11, FGF-2/FGF-basic, Flt-3 ligand, Fractalkine/CX3CL1, G-CSF, GM-CSF, GROα/CXCL1, IFNα2, IFNγ, IL-1α, IL-1β, IL-1RA, IL-2, IL-3, IL-4, IL-5, IL-6, IL-7, IL-8/CXCL8, IL-9, IL-10, IL-12(p40), IL-12(p70), IL-13, IL-15, IL-17A/CTLA8, IL-17E/IL-25, IL-17F, IL-18, IL-22, IL-27, IP-10/CXCL10, MCP-1/CCL2, MCP-3/CCL7, M-CSF, MDC/CCL22, MIG/CXCL9, MIP-1α/CCL3, MIP-1β/CCL4, PDGF-AA, PDGF-AB/BB, RANTES/CCL5, TGFα, TNFα, TNFβ, and VEGF-A. Multiplex-based assay read-out was performed using the MAGPIX system (Merck) with the xPONENT 4.2 software (Merck) in accordance with the manufacturer’s instruction with overnight incubation of the samples with primary antibodies. A final analysis was carried out with the MILLIPLEX Analyst v5.1 software (Merck). Measurements were performed twice for each sample. Release of the analytes in control and experimental samples was compared with an unpaired two-sample t-test using GraphPad Prism v.8.0.1 (GraphPad Software, Inc., San Diego, CA, USA). The p values ≤ 0.05 were considered significant.

For “Psd1: pea defensin from Pisum sativum (UNIPROT P81929), recombinant peptide overexpressed in Escherichia coli (KTCEHLADTYRGVCFTNASCDDHCKNKAHLISGTCHNWKCFCTQNC; UniProt P81929 1-46, looked up)”, the “toxicity for Beas-2B cells” value [1] is given as “not toxic”, the EGF level ([2]; moDCs+Psd1, 2 µM, supernatant) is given as 6.22 pg/mL and the Eotaxin level ([2]; moDCs+Psd1, 2 µM, supernatant) is given as <3.52↓ pg/ml. For the same substance, the FGF-2 level ([2]; moDCs+Psd1, 2 µM, supernatant) was 55.36 pg/mL, the FLT-3L level ([2]; moDCs+Psd1, 2 µM, supernatant) was 1.05 pg/mL and the Fractalkine level ([2]; moDCs+Psd1, 2 µM, supernatant) was <17.82↓ pg/ml. The G-CSF level ([2]; moDCs+Psd1, 2 µM, supernatant) was 49.49 pg/mL, the GM-CSF level ([2]; moDCs+Psd1, 2 µM, supernatant) was 11.89 pg/mL and the GROa level ([2]; moDCs+Psd1, 2 µM, supernatant) was <0.61↓ pg/ml. It also gave an IFNa2 level ([2]; moDCs+Psd1, 2 µM, supernatant) of 12.78 pg/mL, an IFNg level ([2]; moDCs+Psd1, 2 µM, supernatant) of 7.25 pg/mL and an IL-1RA level ([2]; moDCs+Psd1, 2 µM, supernatant) of 53.29 pg/mL. For the same substance, the IL-1a level ([2]; moDCs+Psd1, 2 µM, supernatant) was 12.23 pg/mL, the IL-1b level ([2]; moDCs+Psd1, 2 µM, supernatant) was <2.26↓ pg/ml and the IL-2 level ([2]; moDCs+Psd1, 2 µM, supernatant) was 1.82 pg/mL. The IL-3 level ([2]; moDCs+Psd1, 2 µM, supernatant) was 1.61 pg/mL, the IL-4 level ([2]; moDCs+Psd1, 2 µM, supernatant) was <1.14↓ pg/ml and the IL-5 level ([2]; moDCs+Psd1, 2 µM, supernatant) was 4.15 pg/mL. The IL-6 level ([2]; moDCs+Psd1, 2 µM, supernatant) was 14.4 pg/mL, the IL-7 level ([2]; moDCs+Psd1, 2 µM, supernatant) was <0.38↓ pg/ml and the IL-8 level ([2]; moDCs+Psd1, 2 µM, supernatant) was 345.9 pg/mL. The IL-9 level ([2]; moDCs+Psd1, 2 µM, supernatant) was 3.67 pg/mL, the IL-10 level ([2]; moDCs+Psd1, 2 µM, supernatant) was 33.74 pg/mL and the “IL-12 (p40) level” value ([2]; moDCs+Psd1, 2 µM, supernatant) was 98.57 pg/mL. For the same substance, the “IL-12 (p70) level” value ([2]; moDCs+Psd1, 2 µM, supernatant) was <1.68↓ pg/ml, the IL-13 level ([2]; moDCs+Psd1, 2 µM, supernatant) was 19.51 pg/mL and the IL-15 level ([2]; moDCs+Psd1, 2 µM, supernatant) was 12.91 pg/mL. For the same substance, the IL-17A level ([2]; moDCs+Psd1, 2 µM, supernatant) was 3.9 pg/mL, the IL-17E/IL-25 level ([2]; moDCs+Psd1, 2 µM, supernatant) was <18.85↓ pg/ml and the IL-17F level ([2]; moDCs+Psd1, 2 µM, supernatant) was <19.03↓ pg/ml. The IL-18 level ([2]; moDCs+Psd1, 2 µM, supernatant) was 2.59 pg/mL, the IL-22 level ([2]; moDCs+Psd1, 2 µM, supernatant) was 12.46 pg/mL and the IL-27 level ([2]; moDCs+Psd1, 2 µM, supernatant) was 135.68 pg/mL. It also gave an IP-10 level ([2]; moDCs+Psd1, 2 µM, supernatant) of 8892 pg/mL, a M-GSF level ([2]; moDCs+Psd1, 2 µM, supernatant) of 218.78 pg/mL and an MCP-1 level ([2]; moDCs+Psd1, 2 µM, supernatant) of 1760 pg/mL. For the same substance, the MCP-3 level ([2]; moDCs+Psd1, 2 µM, supernatant) was 49.77 pg/mL, the MDC level ([2]; moDCs+Psd1, 2 µM, supernatant) was 3016 pg/mL and the MIG level ([2]; moDCs+Psd1, 2 µM, supernatant) was 30050 pg/mL. For the same substance, the MIP-1a level ([2]; moDCs+Psd1, 2 µM, supernatant) was 185.33 pg/mL, the MIP-1b level ([2]; moDCs+Psd1, 2 µM, supernatant) was 554.97 pg/mL and the PDGF-AA level ([2]; moDCs+Psd1, 2 µM, supernatant) was 89.5 pg/mL. For the same substance, the PDGF-AB/BB level ([2]; moDCs+Psd1, 2 µM, supernatant) was 139.81 pg/mL, the RANTES level ([2]; moDCs+Psd1, 2 µM, supernatant) was 65.35 pg/mL and the TGF-a level ([2]; moDCs+Psd1, 2 µM, supernatant) was 113.74 pg/mL. The TNFa level ([2]; moDCs+Psd1, 2 µM, supernatant) was 55.68 pg/mL, the TNFb level ([2]; moDCs+Psd1, 2 µM, supernatant) was 2.29 pg/mL and the VEGFa level ([2]; moDCs+Psd1, 2 µM, supernatant) was <1.40↓ pg/ml. For the same substance, the sCD40L level ([2]; moDCs+Psd1, 2 µM, supernatant) was 133.96 pg/mL, the “increase in IL-12, IL-15, IL-27 and MCP-1” value ([2]; moDCs, 2 μM) was “statistically significant” and the “production of TNFα, IL-6, IL-8, IP-10, MCP-3, and G-CSF” value ([2]; moDCs, 2 μM) was “increased”.

Source: PMC10178127, “Immunomodulatory Effects of the Pea Defensin Psd1 in the Caco-2/Immune Cells Co-Culture upon Candida albicans Infection” (International Journal of Molecular Sciences, 2023)
